In patent publication US20180213790A1, “COMPOSITIONS AND USES THEREOF FOR CONTROLLING ECTOPARASITES IN NON-HUMAN MAMMALS” (priority 2015, published 2018):
Like-named read-outs stand apart in the source and are kept apart here.

How the values were obtained:
Ctenocephalides felis = conditions: for EC50 (ppm) Total amount of actives (ppm): total of dinotefuran and fipronil; for EC50 (ppm) Dinotefuran: amount of dinotefuran
Method: Insecticidal activity of dinotefuran, fipronil and dinotefuran/fipronil combinations at different ratios was evaluated using an in vitro coated-vial bioassay. Serial dilutions of test compounds, individually or in combination, were conducted with an acetone/triton solution+0.5% DMSO from a dinotefuran starting dose at 100 ppm and from a fipronil starting dose at 50 ppm. Vials were treated with dinotefuran, fipronil, dinotefuran/fipronil (tested at 6 ratios). Vials were capped and allowed to dry for at least 4 hours before the addition of 10 newly emerged (0-7 days old) unfed adult fleas (Ctenocephalides felis). Flea susceptibility was assessed at 6, 24 and 48 hours post-exposure by evaluating mortality. The EC50 and EC90 values were calculated based on Median-Effect Principle (Chu, 2006. Theoretical Basis, Experimental design, and Computerized Simulation of Synergism and Antagonism in drug Combination studies. Pharmacological reviews, 58(3):621-681) using COMPUSYN (version 1.0). EC50 and EC90 are defined as the amount of drugs, which causes respectively a 50% and 90% flea mortality. Combination indexes (CI) at EC50 and EC90 were calculated to characterize the interaction of each combination: synergism (CI<1), antagonism (CI>1) and additive effect (CI=1) and a combination index (CI) values were calculated at 48 hours of exposure to assess the potential for synergistic activity (Chou, Pharmacol. Rev. 2006, 58, 621-681; Chou, Drug combination studies and their synergy quantification using the Chou-Talalay method, Cancer. Res., 2010, 70: 440-446).

Rhipicephalus sanguineus = assay: in vitro coated-vial bioassay, activity against ticks; conditions: for mortality at 0.206 ppm / mortality at 0.617 ppm / mortality at 1.852 ppm / mortality at 5.556 ppm / mortality at 16.667 ppm / mortality at 50 ppm: Rhipicephalus sanguineus; for mortality at 0.206 ppm: D 0.000 ppm + F 0.206 ppm; for mortality at 0.617 ppm: D 0.000 ppm + F 0.617 ppm; for mortality at 1.852 ppm: D 0.000 ppm + F 1.852 ppm; for mortality at 5.556 ppm: D 0.000 ppm + F 5.556 ppm; for mortality at 16.667 ppm: D 0.000 ppm + F 16.667 ppm; for mortality at 50 ppm: D 0.000 ppm + F 50.000 ppm; for EC50 (ppm) Total amount of actives (ppm): total of dinotefuran and fipronil
Method: Tick susceptibility was assessed at 12, 24 and 48 hours post-exposure by evaluating mortality.

[1] = 12 H, read-out: Mortality (%) 12 H
[2] = 24 H, read-out: Mortality (%) 24 H
[3] = 48 H, read-out: Mortality (%) 48 H

N#Cc1nn(-c2c(Cl)cc(C(F)(F)F)cc2Cl)c(N)c1[S+]([O-])C(F)(F)F (racemic) [D:F = 0:1, (RS)-5-amino-1-[2,6-dichloro-4-(trifluoromethyl)phenyl]-4-(trifluoromethylsulfinyl)-1H-pyrazole-3-carbonitrile]
EC50 (ppm) Fiproml (Ctenocephalides felis; Table 2, fleas, amount of fipronil, alone or in the combination): 13.83 ppm | EC50 (ppm) Total amount of actives (ppm) (Ctenocephalides felis; Table 2, fleas): 13.83 ppm | mortality at 0.206 ppm (Rhipicephalus sanguineus; [1]): 0% | mortality at 0.206 ppm (Rhipicephalus sanguineus; [2]): 0% | mortality at 0.206 ppm (Rhipicephalus sanguineus; [3]): 0% | mortality at 0.617 ppm (Rhipicephalus sanguineus; [1]): 0% | mortality at 0.617 ppm (Rhipicephalus sanguineus; [2]): 0% | mortality at 0.617 ppm (Rhipicephalus sanguineus; [3]): 10% | mortality at 1.852 ppm (Rhipicephalus sanguineus; [1]): 0% | mortality at 1.852 ppm (Rhipicephalus sanguineus; [2]): 0% | mortality at 1.852 ppm (Rhipicephalus sanguineus; [3]): 0% | mortality at 5.556 ppm (Rhipicephalus sanguineus; [1]): 0% | mortality at 5.556 ppm (Rhipicephalus sanguineus; [2]): 20% | mortality at 5.556 ppm (Rhipicephalus sanguineus; [3]): 60% | mortality at 16.667 ppm (Rhipicephalus sanguineus; [1]): 60% | mortality at 16.667 ppm (Rhipicephalus sanguineus; [2]): 80% | mortality at 16.667 ppm (Rhipicephalus sanguineus; [3]): 100% | mortality at 50 ppm (Rhipicephalus sanguineus; [1]): 60% | mortality at 50 ppm (Rhipicephalus sanguineus; [2]): 100% | mortality at 50 ppm (Rhipicephalus sanguineus; [3]): 100% | EC50 (ppm) Fipronil (Rhipicephalus sanguineus; Table 5, ticks, amount of fipronil): 3.77 ppm | EC50 (ppm) Total amount of actives (ppm) (Rhipicephalus sanguineus; Table 5, ticks): 3.77 ppm

CN/C(=N\[N+](=O)[O-])NCC1CCOC1 (stereo not drawn) [D:F = 1:0, 2-methyl-l-nitro-3-[(tetrahydro-3-furanyl)methyl] guanidine]
activity against fleas (in words) (Ctenocephalides felis): more potent than fipronil | Mortality (%) 6 H (Ctenocephalides felis; D 0.412 ppm + F 0.000 ppm): 0% | Mortality (%) 24 H (Ctenocephalides felis; D 0.412 ppm + F 0.000 ppm): 10% | Mortality (%) 48 H (Ctenocephalides felis; D 0.412 ppm + F 0.000 ppm): 0% | Mortality (%) 6 H (Ctenocephalides felis; D 1.235 ppm + F 0.000 ppm): 0% | Mortality (%) 24 H (Ctenocephalides felis; D 1.235 ppm + F 0.000 ppm): 10% | Mortality (%) 48 H (Ctenocephalides felis; D 1.235 ppm + F 0.000 ppm): 20% | Mortality (%) 6 H (Ctenocephalides felis; D 3.704 ppm + F 0.000 ppm): 0% | Mortality (%) 24 H (Ctenocephalides felis; D 3.704 ppm + F 0.000 ppm): 20% | Mortality (%) 48 H (Ctenocephalides felis; D 3.704 ppm + F 0.000 ppm): 50% | Mortality (%) 6 H (Ctenocephalides felis; D 11.111 ppm + F 0.000 ppm): 10% | Mortality (%) 24 H (Ctenocephalides felis; D 11.111 ppm + F 0.000 ppm): 30% | Mortality (%) 48 H (Ctenocephalides felis; D 11.111 ppm + F 0.000 ppm): 60% | Mortality (%) 6 H (Ctenocephalides felis; D 33.333 ppm + F 0.000 ppm): 0% | Mortality (%) 24 H (Ctenocephalides felis; D 33.333 ppm + F 0.000 ppm): 10% | Mortality (%) 48 H (Ctenocephalides felis; D 33.333 ppm + F 0.000 ppm): 80% | Mortality (%) 6 H (Ctenocephalides felis; D 100.000 ppm + F 0.000 ppm): 40% | Mortality (%) 24 H (Ctenocephalides felis; D 100.000 ppm + F 0.000 ppm): 80% | Mortality (%) 48 H (Ctenocephalides felis; D 100.000 ppm + F 0.000 ppm): 90% | EC50 (ppm) Dinotefuran (Ctenocephalides felis; Table 2, fleas, alone or in the combination): 8.05 ppm | EC50 (ppm) Total amount of actives (ppm) (Ctenocephalides felis; Table 2, fleas): 8.05 ppm | EC50 (ppm) Dinotefuran (Ctenocephalides felis; Table 3 (head EC50, text says EC90), fleas): 50.87 ppm | acaricidal activity against ticks (in words) (Rhipicephalus sanguineus): not active | Mortality (%) 12 H (Rhipicephalus sanguineus; D 0.412 ppm + F 0.000 ppm, 12 H): 0% | Mortality (%) 24 H (Rhipicephalus sanguineus; D 0.412 ppm + F 0.000 ppm, 24 H): 0% | Mortality (%) 48 H (Rhipicephalus sanguineus; D 0.412 ppm + F 0.000 ppm, 48 H): 0% | Mortality (%) 12 H (Rhipicephalus sanguineus; D 1.235 ppm + F 0.000 ppm, 12 H): 0% | Mortality (%) 24 H (Rhipicephalus sanguineus; D 1.235 ppm + F 0.000 ppm, 24 H): 0% | Mortality (%) 48 H (Rhipicephalus sanguineus; D 1.235 ppm + F 0.000 ppm, 48 H): 0% | Mortality (%) 12 H (Rhipicephalus sanguineus; D 3.704 ppm + F 0.000 ppm, 12 H): 0% | Mortality (%) 24 H (Rhipicephalus sanguineus; D 3.704 ppm + F 0.000 ppm, 24 H): 0% | Mortality (%) 48 H (Rhipicephalus sanguineus; D 3.704 ppm + F 0.000 ppm, 48 H): 0% | Mortality (%) 12 H (Rhipicephalus sanguineus; D 11.111 ppm + F 0.000 ppm, 12 H): 0% | Mortality (%) 24 H (Rhipicephalus sanguineus; D 11.111 ppm + F 0.000 ppm, 24 H): 0% | Mortality (%) 48 H (Rhipicephalus sanguineus; D 11.111 ppm + F 0.000 ppm, 48 H): 0% | Mortality (%) 12 H (Rhipicephalus sanguineus; D 33.333 ppm + F 0.000 ppm, 12 H): 0% | Mortality (%) 24 H (Rhipicephalus sanguineus; D 33.333 ppm + F 0.000 ppm, 24 H): 0% | Mortality (%) 48 H (Rhipicephalus sanguineus; D 33.333 ppm + F 0.000 ppm, 48 H): 0% | Mortality (%) 12 H (Rhipicephalus sanguineus; D 100.000 ppm + F 0.000 ppm, 12 H): 0% | Mortality (%) 24 H (Rhipicephalus sanguineus; D 100.000 ppm + F 0.000 ppm, 24 H): 0% | Mortality (%) 48 H (Rhipicephalus sanguineus; D 100.000 ppm + F 0.000 ppm, 48 H): 0% | EC50 (ppm) Dinotefuran (Rhipicephalus sanguineus; Table 5, ticks, amount of dinotefuran): >100 ppm | EC50 (ppm) Total amount of actives (ppm) (Rhipicephalus sanguineus; Table 5, ticks): 100 ppm
